{"source": "ChEMBL document CHEMBL4229418", "about": "“Design, synthesis and pharmacology of aortic-selective acyl-CoA: Cholesterol O-acyltransferase (ACAT/SOAT) inhibitors” (Bioorg Med Chem, 2018)", "key": {"[1]": {"experiment": "Tmax in non-fasted Beagle dog at 30 mg/kg, po by LC-MS/MS analysis", "type": "ADME, organism-based, Canis lupus familiaris", "conditions": "in vivo"}, "[2]": {"experiment": "Solubility of the compound in pH 1.2 solution", "type": "physicochemical", "conditions": "buffer"}, "[3]": {"experiment": "Cmax in non-fasted Beagle dog at 30 mg/kg, po by LC-MS/MS analysis", "type": "ADME, organism-based, Canis lupus familiaris", "set-up": "dose 30 mg/kg, route oral", "conditions": "in vivo"}, "[4]": {"experiment": "Cmax in non-fasted Sprague-Dawley rat at 30 mg/kg, po by LC-MS/MS analysis", "type": "ADME, organism-based", "set-up": "dose 30 mg/kg, route oral", "conditions": "in vivo"}, "[5]": {"test_system": "Hamster", "experiment": "Antiatherosclerotic activity in Bio F1B hamster model of diet-induced atherosclerosis assessed as reduction in lipid accumulation areas in aortic arch at 1 mg/kg/day added to chow pellets by oil red O staining based assay relative to control", "type": "functional", "conditions": "Cricetinae"}, "[6]": {"test_system": "Hamster", "experiment": "Antiatherosclerotic activity in Bio F1B hamster model of diet-induced atherosclerosis assessed as reduction in lipid accumulation areas in aortic arch at 3 mg/kg/day added to chow pellets by oil red O staining based assay relative to control", "type": "functional", "conditions": "Cricetinae"}, "[7]": {"test_system": "Canis familiaris", "experiment": "Toxicity in dog assessed as induction of necrosis in adrenal reticular zona cells at 100 mg/kg measured over 2 weeks", "type": "organism-based, Canis lupus familiaris", "conditions": "in vivo, 336 h"}, "[8]": {"test_system": "Hamster", "experiment": "Toxicity in Bio F1B hamster model of diet-induced atherosclerosis assessed as plasma total cholesterol level at 1 mg/kg/day added to chow pellets (reference value: 2160.1 mg/dl)", "type": "organism-based", "conditions": "cricetinae, in vivo"}, "[9]": {"test_system": "Hamster", "experiment": "Toxicity in Bio F1B hamster model of diet-induced atherosclerosis assessed as plasma total cholesterol level at 30 mg/kg/day added to chow pellets (reference value: 2160.1 mg/dl)", "type": "organism-based", "conditions": "cricetinae, in vivo"}, "[10]": {"test_system": "Hamster", "experiment": "Effect on lipid composition in Bio F1B hamster model of diet-induced atherosclerosis assessed as liver total cholesterol level at 1 mg/kg/day added to chow pellets (reference value: 31.99 mg/dl)", "type": "functional, Cricetinae"}, "[11]": {"test_system": "Hamster", "experiment": "Effect on lipid composition in Bio F1B hamster model of diet-induced atherosclerosis assessed as liver total cholesterol level at 3 mg/kg/day added to chow pellets (reference value: 31.99 mg/dl)", "type": "functional, Cricetinae"}, "[12]": {"test_system": "Hamster", "experiment": "Effect on lipid composition in Bio F1B hamster model of diet-induced atherosclerosis assessed as liver total cholesterol level at 10 mg/kg/day added to chow pellets (reference value: 31.99 mg/dl)", "type": "functional, Cricetinae"}, "[13]": {"test_system": "Hamster", "experiment": "Effect on lipid composition in Bio F1B hamster model of diet-induced atherosclerosis assessed as intestine total cholesterol level at 30 mg/kg/day added to chow pellets (reference value: 4.51 mg/dl)", "type": "functional, Cricetinae"}, "[14]": {"test_system": "Hamster", "experiment": "Effect on lipid composition in Bio F1B hamster model of diet-induced atherosclerosis assessed as adrenal total cholesterol level at 10 mg/kg/day added to chow pellets (reference value: 10.54 mg/dl)", "type": "functional, Cricetinae"}, "[15]": {"test_system": "Hamster", "experiment": "Antiatherosclerotic activity in Bio F1B hamster model of diet-induced atherosclerosis assessed as plasma free cholesterol level at 1 mg/kg/day added to chow pellets (reference value: 780.8 mg/dl)", "type": "functional, Cricetinae"}, "[16]": {"test_system": "Hamster", "experiment": "Antiatherosclerotic activity in Bio F1B hamster model of diet-induced atherosclerosis assessed as plasma free cholesterol level at 3 mg/kg/day added to chow pellets (reference value: 780.8 mg/dl)", "type": "functional, Cricetinae"}, "[17]": {"test_system": "Hamster", "experiment": "Antiatherosclerotic activity in Bio F1B hamster model of diet-induced atherosclerosis assessed as plasma free cholesterol level at 10 mg/kg/day added to chow pellets (reference value: 780.8 mg/dl)", "type": "functional, Cricetinae"}, "[18]": {"test_system": "Hamster", "experiment": "Antiatherosclerotic activity in Bio F1B hamster model of diet-induced atherosclerosis assessed as liver free cholesterol level at 10 mg/kg/day added to chow pellets (reference value: 7.94 mg/dl)", "type": "functional, Cricetinae"}, "[19]": {"test_system": "Hamster", "experiment": "Antiatherosclerotic activity in Bio F1B hamster model of diet-induced atherosclerosis assessed as intestinal free cholesterol level at 1 mg/kg/day added to chow pellets (reference value: 3.41 mg/dl)", "type": "functional, Cricetinae"}, "[20]": {"test_system": "Hamster", "experiment": "Antiatherosclerotic activity in Bio F1B hamster model of diet-induced atherosclerosis assessed as intestinal free cholesterol level at 3 mg/kg/day added to chow pellets (reference value: 3.41 mg/dl)", "type": "functional, Cricetinae"}, "[21]": {"test_system": "Hamster", "experiment": "Antiatherosclerotic activity in Bio F1B hamster model of diet-induced atherosclerosis assessed as intestinal free cholesterol level at 10 mg/kg/day added to chow pellets (reference value: 3.41 mg/dl)", "type": "functional, Cricetinae"}, "[22]": {"test_system": "Hamster", "experiment": "Toxicity in Bio F1B hamster model of diet-induced atherosclerosis assessed as adrenal free cholesterol level at 1 mg/kg/day added to chow pellets (reference value: 4.65 mg/dl)", "type": "organism-based", "conditions": "cricetinae, in vivo"}, "[23]": {"test_system": "Hamster", "experiment": "Antiatherosclerotic activity in Bio F1B hamster model of diet-induced atherosclerosis assessed as plasma cholesterol ester level at 3 mg/kg/day added to chow pellets (reference value: 1379.3 mg/dl)", "type": "functional, Cricetinae"}, "[24]": {"test_system": "Hamster", "experiment": "Antiatherosclerotic activity in Bio F1B hamster model of diet-induced atherosclerosis assessed as plasma cholesterol ester level at 30 mg/kg/day added to chow pellets (reference value: 1379.3 mg/dl)", "type": "functional, Cricetinae"}, "[25]": {"test_system": "Hamster", "experiment": "Antiatherosclerotic activity in Bio F1B hamster model of diet-induced atherosclerosis assessed as liver cholesterol ester level at 10 mg/kg/day added to chow pellets (reference value: 24.04 mg/dl)", "type": "functional, Cricetinae"}, "[26]": {"test_system": "Hamster", "experiment": "Antiatherosclerotic activity in Bio F1B hamster model of diet-induced atherosclerosis assessed as intestinal cholesterol ester level at 1 mg/kg/day added to chow pellets (reference value: 1.09 mg/dl)", "type": "functional, Cricetinae"}, "[27]": {"test_system": "Hamster", "experiment": "Antiatherosclerotic activity in Bio F1B hamster model of diet-induced atherosclerosis assessed as intestinal cholesterol ester level at 3 mg/kg/day added to chow pellets (reference value: 1.09 mg/dl)", "type": "functional, Cricetinae"}, "[28]": {"test_system": "Hamster", "experiment": "Antiatherosclerotic activity in Bio F1B hamster model of diet-induced atherosclerosis assessed as intestinal cholesterol ester level at 30 mg/kg/day added to chow pellets (reference value: 1.09 mg/dl)", "type": "functional, Cricetinae"}, "[29]": {"test_system": "Hamster", "experiment": "Antiatherosclerotic activity in Bio F1B hamster model of diet-induced atherosclerosis assessed as adrenal cholesterol ester level at 30 mg/kg/day added to chow pellets (reference value: 5.88 mg/dl)", "type": "functional, Cricetinae"}}, "data": [{"smiles": "CC(C)c1cccc(C(C)C)c1NC(=O)CCCCCCCCSc1nc2ccccc2o1", "values": [{"measurement": "Tmax", "setting": "[1]", "value": 3, "unit": "h"}, {"measurement": "solubility", "setting": "[2]", "value": 0.03, "unit": "µg/mL"}, {"measurement": "Cmax", "setting": "[3]", "value": 582, "unit": "ng/mL"}, {"measurement": "Cmax", "setting": "[4]", "value": 107, "unit": "ng/mL"}, {"measurement": "inhibition in vivo at 1 mg/kg/day", "setting": "[5]", "value": 74, "unit": "%"}, {"measurement": "inhibition in vivo at 3 mg/kg/day", "setting": "[6]", "value": 69, "unit": "%"}, {"measurement": "Activity", "setting": "[7]", "value": "Toxic"}, {"measurement": "Activity", "setting": "[8]", "value": 2340.8, "unit": "mg/dL"}, {"measurement": "Activity", "setting": "[9]", "value": 476.3, "unit": "mg/dL"}, {"measurement": "Activity", "setting": "[10]", "value": 30.75, "unit": "mg/dL"}, {"measurement": "Activity", "setting": "[11]", "value": 23.62, "unit": "mg/dL"}, {"measurement": "Activity", "setting": "[12]", "value": 11.52, "unit": "mg/dL"}, {"measurement": "Activity", "setting": "[13]", "value": 4.81, "unit": "mg/dL"}, {"measurement": "Activity", "setting": "[14]", "value": 7, "unit": "mg/dL"}, {"measurement": "Activity", "setting": "[15]", "value": 828.2, "unit": "mg/dL"}, {"measurement": "Activity", "setting": "[16]", "value": 801.5, "unit": "mg/dL"}, {"measurement": "Activity", "setting": "[17]", "value": 491.9, "unit": "mg/dL"}, {"measurement": "Activity", "setting": "[18]", "value": 3.87, "unit": "mg/dL"}, {"measurement": "Activity", "setting": "[19]", "value": 3.43, "unit": "mg/dL"}, {"measurement": "Activity", "setting": "[20]", "value": 3.18, "unit": "mg/dL"}, {"measurement": "Activity", "setting": "[21]", "value": 3.82, "unit": "mg/dL"}, {"measurement": "Activity", "setting": "[22]", "value": 4.41, "unit": "mg/dL"}, {"measurement": "Activity", "setting": "[23]", "value": 1439.6, "unit": "mg/dL"}, {"measurement": "Activity", "setting": "[24]", "value": 259, "unit": "mg/dL"}, {"measurement": "Activity", "setting": "[25]", "value": 7.65, "unit": "mg/dL"}, {"measurement": "Activity", "setting": "[26]", "value": 0.98, "unit": "mg/dL"}, {"measurement": "Activity", "setting": "[27]", "value": 0.94, "unit": "mg/dL"}, {"measurement": "Activity", "setting": "[28]", "value": 0.24, "unit": "mg/dL"}, {"measurement": "Activity", "setting": "[29]", "value": 1.08, "unit": "mg/dL"}]}]}
